Reference: ChEMBL document CHEMBL1138695, “Synthesis of stavudine amino acid ester prodrugs with broad-spectrum chemotherapeutic properties for the effective treatment of HIV/AIDS” (Bioorg Med Chem Lett, 2004)
Converted amounts (≈) assume the structure as drawn.

How the values were obtained:
Klebsiella pneumoniae [1] = assay: Antibacterial activity against Klebsiella pneumoniae; assay type: functional
Vibrio cholerae [2] = assay: Antibacterial activity against Vibrio cholerae 0139; assay type: functional
Salmonella paratyphi = assay: Antibacterial activity against Salmonella paratyphi A; assay type: functional, Salmonella enterica subsp. enterica serovar Paratyphi A; settings: Salmonella enterica
Vibrio mimicus = assay: Antibacterial activity against Vibrio mimicus; assay type: functional
Enterobacter = assay: Antibacterial activity against Enterobacter; assay type: functional
Proteus vulgaris = assay: Antibacterial activity against Proteus vulgaris; assay type: functional
Shigella boydii = assay: Antibacterial activity against Shigella boydii; assay type: functional
Priestia megaterium = assay: Antibacterial activity against Bacillus megatherium; assay type: functional
Vibrio parahaemolyticus = assay: Antibacterial activity against Vibrio parahaemolyticus; assay type: functional
Escherichia coli = assay: Antibacterial activity against Escherichia coli NCTC 10418; assay type: functional
Salmonella typhimurium = assay: Antibacterial activity against Salmonella Typhimurium; assay type: functional, Salmonella enterica subsp. enterica serovar Typhimurium; settings: Salmonella enterica
Shigella sonnei = assay: Antibacterial activity against Shigella sonnei; assay type: functional
Edwardsiella tarda = assay: Antibacterial activity against Edwardsiella tarda; assay type: functional
Proteus mirabilis = assay: Antibacterial activity against Proteus mirabilis; assay type: functional
Morganella morganii = assay: Antibacterial activity against Morganella morganii; assay type: functional
Vibrio cholerae [3] = assay: Antibacterial activity against Vibrio cholerae 01; assay type: functional
Vibrio fluvialis = assay: Antibacterial activity against Vibrio fluvialis; assay type: functional
Citrobacter freundii = assay: Antibacterial activity against Citrobacter ferundii; assay type: functional
Klebsiella pneumoniae [4] = assay: Antibacterial activity against Klebsiella ozaenae; assay type: functional; settings: subsp. ozaenae
Plesiomonas shigelloides = assay: Antibacterial activity against Plesiomonas shigelloides; assay type: functional
Staphylococcus aureus = assay: Antibacterial activity against Staphylococcus aureus; assay type: functional
Salmonella enteritidis = assay: Antibacterial activity against Salmonella enteritidis; assay type: functional, Salmonella enterica subsp. enterica serovar Enteritidis; settings: Salmonella enterica
Pseudomonas aeruginosa = assay: Antibacterial activity against Pseudomonas aeruginosa; assay type: functional
Salmonella typhi = assay: Antibacterial activity against […] Salmonella typhi; assay type: functional, Salmonella enterica subsp. enterica serovar Typhi; settings: Salmonella enterica
CCRF-CEM [5] = assay: Effective concentration of compound achieving 50% protection in CEM cell lines against the cytopathic effect of HIV-1; assay type: functional, cell-based; settings: Homo sapiens
[6] = test system: Mycobacterium tuberculosis; assay: Antimycobacterial activity against Mycobacterium tuberculosis strain H37Rv; assay type: functional; set-up: concentration or dose not given beside the values
CCRF-CEM [7] = assay: Cytotoxic concentration of compound required to reduce the viability of mock infected CEM cells by 50%; assay type: functional; settings: Homo sapiens
[8] = Selectivity index expressed as the ratio of CC50 to EC50; assay type: functional
[9] = In vitro hydrolysis in human plasma; assay type: ADME, cell-free

SMILES	MIC (Klebsiella pneumoniae [1]) [µg/mL]	MIC (Vibrio cholerae [2]) [µg/mL]	MIC (Vibrio mimicus) [µg/mL]	MIC (Enterobacter) [µg/mL]	MIC (Proteus vulgaris) [µg/mL]	MIC (Shigella boydii) [µg/mL]	MIC (Priestia megaterium) [µg/mL]	MIC (Vibrio parahaemolyticus) [µg/mL]	MIC (Escherichia coli) [µg/mL]	MIC (Salmonella typhimurium) [µg/mL]	MIC (Shigella sonnei) [µg/mL]	MIC (Edwardsiella tarda) [µg/mL]	MIC (Proteus mirabilis) [µg/mL]	MIC (Morganella morganii) [µg/mL]	MIC (Vibrio cholerae [3]) [µg/mL]	MIC (Vibrio fluvialis) [µg/mL]	MIC (Citrobacter freundii) [µg/mL]	EC50 (CCRF-CEM [5]) [µM]	CC50 (CCRF-CEM [7]) [µM]	Selectivity index [8]	also measured
CCn1cc(C(=O)O)c(=O)c2cc(F)c(N3CCNCC3)cc21 [NORFLOXACIN]	0.0381 (≈ 0.119 µM)	0.0763 (≈ 0.239 µM)	0.153 (≈ 0.478 µM)	0.0763 (≈ 0.239 µM)	0.0381 (≈ 0.119 µM)	0.0381 (≈ 0.119 µM)	0.0763 (≈ 0.239 µM)	0.0763 (≈ 0.239 µM)	0.0381 (≈ 0.119 µM)	0.0763 (≈ 0.239 µM)	0.0381 (≈ 0.119 µM)	0.0381 (≈ 0.119 µM)	0.0763 (≈ 0.239 µM)	0.0763 (≈ 0.239 µM)	0.0763 (≈ 0.239 µM)	0.0763 (≈ 0.239 µM)	0.0381 (≈ 0.119 µM)				MIC (Salmonella paratyphi): 0.0381 µg/mL (≈ 0.119 µM); MIC (Klebsiella pneumoniae [4]): 0.0381 µg/mL (≈ 0.119 µM); MIC (Plesiomonas shigelloides): 0.0763 µg/mL (≈ 0.239 µM); MIC (Staphylococcus aureus): 0.153 µg/mL (≈ 0.478 µM); MIC (Salmonella enteritidis): 0.0381 µg/mL (≈ 0.119 µM); MIC (Pseudomonas aeruginosa): 0.0763 µg/mL (≈ 0.239 µM); MIC (Salmonella typhi): 0.0763 µg/mL (≈ 0.239 µM)
CCn1cc(C(=O)O)c(=O)c2cc(F)c(N3CCN(CC(=O)OCC4C=CC(n5cc(C)c(=O)[nH]c5=O)O4)CC3)cc21 (stereo unspecified)	1.22 (≈ 2.09 µM)	0.61 (≈ 1.05 µM)	0.61 (≈ 1.05 µM)	0.3 (≈ 0.514 µM)	9.76 (≈ 16.7 µM)	0.61 (≈ 1.05 µM)	0.3 (≈ 0.514 µM)	1.22 (≈ 2.09 µM)	1.22 (≈ 2.09 µM)	9.76 (≈ 16.7 µM)	9.76 (≈ 16.7 µM)	9.76 (≈ 16.7 µM)	1.22 (≈ 2.09 µM)	9.76 (≈ 16.7 µM)	0.61 (≈ 1.05 µM)	9.76 (≈ 16.7 µM)	2.44 (≈ 4.18 µM)	100	210	2.1	MIC (Salmonella paratyphi): 1.22 µg/mL (≈ 2.09 µM); Inhibition [6]: 98%; MIC (Klebsiella pneumoniae [4]): 1.22 µg/mL (≈ 2.09 µM); MIC (Plesiomonas shigelloides): 9.76 µg/mL (≈ 16.7 µM); MIC (Staphylococcus aureus): 9.76 µg/mL (≈ 16.7 µM); half-life [9]: > 4 h; MIC (Salmonella enteritidis): 9.76 µg/mL (≈ 16.7 µM); MIC (Pseudomonas aeruginosa): 1.22 µg/mL (≈ 2.09 µM)
Cc1cn(C2C=CC(COC(=O)CN3CCNCC3)O2)c(=O)[nH]c1=O (stereo unspecified)																		< 0.0636	> 1000	> 15700	half-life [9]: 0.333 h
Cc1cn(C2C=CC(COC(=O)CNC(=O)c3ccncn3)O2)c(=O)[nH]c1=O (stereo unspecified)	1250 (≈ 3230 µM)	1250 (≈ 3230 µM)	78.1 (≈ 202 µM)	39.1 (≈ 101 µM)	1250 (≈ 3230 µM)	312 (≈ 807 µM)	39.1 (≈ 101 µM)	1250 (≈ 3230 µM)	1250 (≈ 3230 µM)	1250 (≈ 3230 µM)	312 (≈ 807 µM)	1250 (≈ 3230 µM)	1250 (≈ 3230 µM)	312 (≈ 807 µM)	1250 (≈ 3230 µM)	1250 (≈ 3230 µM)	1250 (≈ 3230 µM)	0.52	567	1090	Inhibition [6]: 0%; MIC (Klebsiella pneumoniae [4]): 1250 µg/mL (≈ 3230 µM); MIC (Plesiomonas shigelloides): 312 µg/mL (≈ 807 µM); MIC (Staphylococcus aureus): 1250 µg/mL (≈ 3230 µM); half-life [9]: 1 h; MIC (Salmonella enteritidis): 1250 µg/mL (≈ 3230 µM); MIC (Pseudomonas aeruginosa): 1250 µg/mL (≈ 3230 µM)
Cc1cn(C2C=CC(COC(=O)CNNC(=O)c3ccncc3)O2)c(=O)[nH]c1=O (stereo unspecified)	1250 (≈ 3110 µM)	156 (≈ 389 µM)	4.88 (≈ 12.2 µM)	312 (≈ 779 µM)	312 (≈ 779 µM)	4.88 (≈ 12.2 µM)	2.44 (≈ 6.08 µM)	1250 (≈ 3110 µM)	156 (≈ 389 µM)	1250 (≈ 3110 µM)	156 (≈ 389 µM)	156 (≈ 389 µM)	2.44 (≈ 6.08 µM)	156 (≈ 389 µM)	1250 (≈ 3110 µM)	1250 (≈ 3110 µM)	1250 (≈ 3110 µM)	0.402	> 200	> 497	MIC (Salmonella paratyphi): 9.77 µg/mL (≈ 24.3 µM); Inhibition [6]: 90%; MIC (Klebsiella pneumoniae [4]): 9.76 µg/mL (≈ 24.3 µM); MIC (Plesiomonas shigelloides): 312 µg/mL (≈ 779 µM); MIC (Staphylococcus aureus): 156 µg/mL (≈ 389 µM); half-life [9]: 1 h; MIC (Salmonella enteritidis): 4.88 µg/mL (≈ 12.2 µM); MIC (Pseudomonas aeruginosa): 1250 µg/mL (≈ 3110 µM); MIC (Salmonella typhi): 156 µg/mL (≈ 389 µM)
Cc1cn(C2C=CC(COC(=O)CN(C)C)O2)c(=O)[nH]c1=O (stereo unspecified)																		0.343	456	1330	half-life [9]: 0.5 h
O=C(O)c1cn(C2CC2)c2cc(N3CCNCC3)c(F)cc2c1=O [CIPROFLOXACIN]	0.0095 (≈ 0.0287 µM)	0.0095 (≈ 0.0287 µM)	0.0095 (≈ 0.0287 µM)	0.019 (≈ 0.0573 µM)	0.019 (≈ 0.0573 µM)	0.0095 (≈ 0.0287 µM)	0.0095 (≈ 0.0287 µM)	0.0095 (≈ 0.0287 µM)	0.019 (≈ 0.0573 µM)	0.0095 (≈ 0.0287 µM)	0.0095 (≈ 0.0287 µM)	0.0095 (≈ 0.0287 µM)	0.0095 (≈ 0.0287 µM)	0.0095 (≈ 0.0287 µM)	0.0095 (≈ 0.0287 µM)	0.0095 (≈ 0.0287 µM)	0.0095 (≈ 0.0287 µM)				MIC (Salmonella paratyphi): 0.019 µg/mL (≈ 0.0573 µM); MIC (Klebsiella pneumoniae [4]): 0.0381 µg/mL (≈ 0.115 µM); MIC (Plesiomonas shigelloides): 0.019 µg/mL (≈ 0.0573 µM); MIC (Staphylococcus aureus): 0.0095 µg/mL (≈ 0.0287 µM); MIC (Salmonella enteritidis): 0.0095 µg/mL (≈ 0.0287 µM); MIC (Pseudomonas aeruginosa): 0.0381 µg/mL (≈ 0.115 µM); MIC (Salmonella typhi): 0.019 µg/mL (≈ 0.0573 µM)
Cc1cn(C2C=CC(COC(=O)CN3CCN(c4cc5c(cc4F)c(=O)c(C(=O)O)cn5C4CC4)CC3)O2)c(=O)[nH]c1=O (stereo unspecified)	1.22 (≈ 2.05 µM)	0.61 (≈ 1.02 µM)	0.3 (≈ 0.504 µM)	0.3 (≈ 0.504 µM)	4.88 (≈ 8.19 µM)	0.61 (≈ 1.02 µM)	0.3 (≈ 0.504 µM)	0.3 (≈ 0.504 µM)	0.3 (≈ 0.504 µM)	0.3 (≈ 0.504 µM)	4.88 (≈ 8.19 µM)	4.88 (≈ 8.19 µM)	0.3 (≈ 0.504 µM)	0.61 (≈ 1.02 µM)	0.3 (≈ 0.504 µM)	0.61 (≈ 1.02 µM)	0.61 (≈ 1.02 µM)	61.8	695	11.2	Inhibition [6]: 100%; MIC (Klebsiella pneumoniae [4]): 1.22 µg/mL (≈ 2.05 µM); MIC (Plesiomonas shigelloides): 0.61 µg/mL (≈ 1.02 µM); MIC (Staphylococcus aureus): 4.88 µg/mL (≈ 8.19 µM); half-life [9]: 4 h; MIC (Salmonella enteritidis): 0.61 µg/mL (≈ 1.02 µM); MIC (Pseudomonas aeruginosa): 1.22 µg/mL (≈ 2.05 µM)
Cc1cn([C@H]2C=C[C@@H](CO)O2)c(=O)[nH]c1=O [STAVUDINE]																		0.09	> 100	> 1110	Inhibition [6]: 0%
